One test relates to DU145. Briefly: XTT viability assay. Format: cell-based, human. The following applies: DU145, 3 days. The method, then:
(§1) Viability was assayed after 3 days (XTT, ATCC). IC50 concentrations are indicated (Table 3 above).

For a further test, the system named is HCT116. The test can be described thus: XTT viability assay. The following applies: HCT116, 3 days. It counts as cell-based, human. The method, then: as §1
In a further test the test system is HT-29. The test can be described thus: XTT viability assay. It counts as cell-based, human. The conditions noted are these: HT-29, 3 days. The protocol: as §1
The test system of the next test is K562. Briefly: XTT viability assay. Format: cell-based, human. The following applies: K562, 3 days. The method, then: as §1
The test system of a further test is LNCaP. The test can be described thus: XTT viability assay. It counts as cell-based, human. The conditions noted are these: 3 days. The protocol: as §1
A further test relates to MCF-7. Briefly: XTT viability assay. Format: cell-based, human. The following applies: MCF-7, 3 days. The method, then: as §1
For test [1], the system named is MDA-MB-231. Briefly: XTT viability assay. Format: cell-based, human. The following applies: for IC50 at 72 h: MDA-MB-231, 3 days. The method, then: as §1
For another test, the system named is PC3. Briefly: XTT viability assay. It counts as cell-based, human. The following applies: PC3, 3 days. The method, then:
as §1

The next test deals with SW480. The test can be described thus: XTT viability assay. The following applies: SW480, 3 days. It counts as cell-based, human. The protocol:
as §1

The subject of another test is T47D. The test can be described thus: XTT viability assay. Format: cell-based, human. The following applies: 3 days. The method, then: as §1
For the next test, the system named is U20S. The test can be described thus: XTT viability assay. Format: cell-based, human. The conditions noted are these: 3 days. The method, then:
as §1

For another test, the system named is BJ fibroblast. The test can be described thus: Cell cycle analysis (propidium iodide, flow cytometry). It counts as cell-based, human. The conditions noted are these: 48 hours. The method, then:
(§2) Adherent cells were trypsinyzed, washed twice with PBS and filtered through a […] cell sieve. DNA content was assessed by flow cytometry. Cells were seeded at densities of 1.5×10^5 cells (MDA-MB-231, MDA-MB-436), or 4×10^5 cells (MCF-7 and MCF10A), or 2×10^5 cells (SW480, HT-29), or 5×10^5 cells (HCT116), per well in DMEM with 10% FBS in 6-well plate culture dishes. […] After 48 hours, cells were washed twice with PBS (pH 7.4), centrifuged at 360 g for 10 minutes at 4° C., and fixed in chilled ethanol (70%; v/v in PBS) with gentle vortex mixing. To determine their DNA contents, the cells were stained with 40 μg/ml propidium iodide (hereinafter PI) and analyzed using a FACSCalibur flow cytometer and CellQuest analysis software (Becton Dickinson, San Jose, Calif.). Where phosphoHistone-H3 staining was carried out, cells were incubated with polyclonal antibody against phosphoHistone H3 and then with secondary Goat anti-rabbit IgG-conjugated to FITC prior to PI staining.

Test [2] relates to MDA-MB-231. Described as above. It counts as cell-based, human. The conditions noted are these: 48 hours. The method, then:
as §2

The next test relates to Cyclin B1. Briefly: Western blot analysis of cyclin B1 levels. It counts as cell-based, human. The conditions noted are these: DU145, 24 hour treatment, then ALLN 4 or 8 hours.
Another test deals with pT308 AKT. Briefly: Immunoblot of survival signaling. The following applies: MDA-MB-231 cells, 10 ppm. Format: cell-based, human. The method, then: Protein concentration was determined using the BCA Protein Assay (Pierce), and 20-50 μg of lysate were separated in a 4-12% SDS-PAGE gel. After transfer, membranes were blocked for 15-30 min at room temperature in 5% BSA (Sigma) in Tris-buffered saline containing 0.1% Tween-20. Primary antibody was incubated for either 1.5 hours at room temperature or overnight at 4° C. Secondary antibody was incubated for 30-45 min at room temperature, and proteins were visualized with West Pico Stable (Pierce). All antibodies were used at 1:1000 dilution unless otherwise stated. pT308AKT, AKT, pT180/Y182, pT183/Y185 P38MAPK, pP38MAPK, pT202/Y204 pERK1/2, ERK1, pT183/Y185, pJNK1/2, JNK1, pT71ATF2, pT581MSK1, pT14 Cdc2, Cdc2, pT68Chk2 (cell signaling), pT334MAPKAPK, pS82HSP27 (Cell Signaling Technology, Danvers, Mass.), α-tubulin (Biomarkers, 1:50,000), Cyclin B1 (Santa Cruz Biotechnologies) and horseradish peroxidase-conjugated anti-rabbit IgG and anti-mouse IgG (1:5,000, Pierce).
The PI3K/AKT pathway regulates a wide range of cellular functions including survival and proliferation. […] PDK1 phosphorylates AKT on T308, which is itself activated by phosphorylation on S241. Levels of pS241 PDK1 were reduced upon strigolactone treatment and correlated closely with reduced AKT phosphorylation observed in strigolactone treated cells (FIG. 14).

The subject of test [3] is MDA-MB-231 breast cancer cells. Briefly: Xenograft tumor model. It counts as in vivo. The conditions noted are these: SCID mice, 10 mg/kg iv twice a week, 4 treatments; for Mean tumor volume: control 24.2±5.57; for Tumor growth: p<0.0015. The protocol:
To establish subcutaneous tumors, actively growing MDA-MB-231 breast cancer cells were harvested and 1.5×10^6 cells in 100 μl PBS were injected into the mammary fat pads of mice (n=15). The lesions were allowed to grow until their average sizes were approximately 4.5 mm×4.5 mm (about 3 weeks). The mice were then randomized into 3 groups for various treatments including vehicle control, and two strigolactone analogs: ST-362 and ST-357. Treatment started at day 1, 10 ppm (10 mg/Kg) twice a week for a total of 4 treatments. ST-362 and ST-357 were administered intravenously (iv). Body weight and tumor measurements were recorded twice weekly. Tumor cross-sectional area was calculated by multiplying the length×width and tumor volume was calculated by cubing the mean value of length and width. Results are summarized and plotted.
Data are expressed as mean±SD. Statistical significance was assessed by one-way ANOVA and Games-Howell Post Hoc test. A value of P<0.05 was considered significant and represents significance compared with untreated controls, unless indicated otherwise. Data was analyzed by Graphpad PRISMS and SPSS.

Where “and” joins values, the source holds several entries; their conditions need not be identical. Identical values can stand only once.

The values that follow come from US10208007B2, “Use of strigolactones and strigolactone analogs for treating proliferative conditions” (The State of Israel, Ministry of Agriculture & Rural …, priority 2011, dated 2019).

For `CC1=CC(O/C=C2\Cc3c(n(C)c4cc(-c5cccs5)ccc34)C2=O)OC1=O` (racemic) [MEB-55, (±) 2E-4-methyl-2-(4-methyl-5-oxo-2,5-dihydrofuran-2-yloxymethylene)-6-thiophen-2-yl-1,4-dihydro-2H-cyclopenta[b]indol-3-one], the “IC50 at 72 h” value in the test with DU145 was 12.8 ppm; in the test with HCT116 it was 12.8 ppm; in the test with HT-29, 8.2 ppm; in the test on K562, 8.1 ppm; with LNCaP, 12 ppm; with MCF-7, greater than 12.8 ppm. Moreover, the “IC50 at 72 h” value with MDA-MB-231 [1] came out at 3.9 ppm; in the test on PC3, 8.8 ppm; in the test on SW480, 9.7 ppm; with T47D it was 5.0 ppm; with U20S, 2.7 ppm. For the same compound, the “Cell Cycle Distribution G1” value in the test with BJ fibroblast (5 ppm) turned out to be 78.96%; with MDA-MB-231 [2] (MDA-MB-231, 5 ppm) it was 49.61%. Moreover, the “Cell Cycle Distribution G2” value in the test on BJ fibroblast (5 ppm) is 11.54%; with MDA-MB-231 [2] (MDA-MB-231, 5 ppm), 28.33%. Also, the “Cell Cycle Distribution S” value in the test with BJ fibroblast (5 ppm) is given as 5.930%; in the test on MDA-MB-231 [2] (MDA-MB-231, 5 ppm), 14.51%. Moreover, the SubG1/Apoptosis was found to be 0.57 with BJ fibroblast (5 ppm) and 3.88 with MDA-MB-231 [2] (MDA-MB-231, 5 ppm). Besides, the “Partial rescue of Cyclin B1 levels by ALLN” value in the test on Cyclin B1 worked out at 1.3 fold. The “pT308 AKT levels / inhibition of AKT phosphorylation” value in the test on pT308 AKT was “decreased dramatically between 4 and 8 hours”.

As for `CC1=CC(O/C=C2/C(=O)c3c(c4cc(-c5scc6c5OCCO6)ccc4n3C)C2C)OC1=O` (stereo not drawn) [ST-362, (2E)-2-[(2,5-dihydro-4-methyl-5-oxofuran-2-yloxy)methylene]-1,2-dihydro-7-(2,3-dihydrothieno[3,4-b][1,4]dioxin-7-yl)-1,4-dimethyl-cyclopenta[b]indole-3-(4H)-one], the “IC50 at 72 h” value in the test on DU145 is 7.5 ppm; in the test with HCT116 it was 6.0 ppm; in the test with HT-29, 7.3 ppm; with K562, 4.3 ppm; in the test on LNCaP, 9.8 ppm; with MCF-7, 8.1 ppm. Also, the “IC50 at 72 h” value is listed as 2.9 ppm in the test on MDA-MB-231 [1]; greater than 15 ppm in the test on PC3; 2.9 ppm with SW480; 8.6 ppm in the test with T47D; 2.8 ppm in the test on U20S. Further, the IC20 concentration in the test with MDA-MB-231 [1] (MDA-231, XTT) amounted to 1.5 ppm. Moreover, the “Cell Cycle Distribution G1” value was 83.42% with BJ fibroblast (5 ppm) and 42.17% in the test on MDA-MB-231 [2] (MDA-MB-231, 5 ppm). Besides, the “Cell Cycle Distribution G2” value in the test on BJ fibroblast (5 ppm) was 12.86%; with MDA-MB-231 [2] (MDA-MB-231, 5 ppm) it was 37.93%. The “Cell Cycle Distribution S” value in the test on BJ fibroblast (5 ppm) is on record as 1.580%; with MDA-MB-231 [2] (MDA-MB-231, 5 ppm), 11.90%. The SubG1/Apoptosis in the test on BJ fibroblast (5 ppm) stood at 0.72; in the test with MDA-MB-231 [2] (MDA-MB-231, 5 ppm), 4.17. Besides, the “Partial rescue of Cyclin B1 levels by ALLN” value with Cyclin B1 is listed as 2 fold. This compound registered a Mean tumor volume in test [3] of 17.7±4.28 mm^3. Moreover, the Tumor growth entry in test [3] is on record as “effective in inhibiting tumor growth”.

For the compound `CC1=CC(O/C=C2/C(=O)c3c(c4cc(-c5cccs5)ccc4n3C)C2C)OC1=O` (stereo not drawn) [ST-357, (2E)-1,4-dimethyl-2-((4-methyl-5-oxo-2,5-dihydrofuran-2-yloxy)methylene)-7-(thiophen-2-yl)-1,2-dihydrocyclopenta[b]indol-3(4H)-one], the “IC50 at 72 h” value in the test with DU145 is greater than 15 ppm; with HCT116 it was greater than 15 ppm; in the test on HT-29, greater than 15 ppm; in the test on K562 it was greater than 15 ppm; in the test on LNCaP, 14.4 ppm; in the test on MCF-7 it was greater than 20 ppm. For the same compound, the “IC50 at 72 h” value is 5.0 ppm in the test on MDA-MB-231 [1]; 5.3 ppm and 5.4 ppm in the test with PC3; greater than 15 ppm with SW480; greater than 10 ppm in the test on T47D; 4.5 ppm in the test with U20S. In addition, the Mean tumor volume in [3] came to 15.9±2.61 mm^3. Further, the Tumor growth entry in test [3] is “effective in inhibiting tumor growth”.

As to `CC1=CC(O/C=C2\Cc3c(n(C)c4ccccc34)C2=O)OC1=O` (racemic) [EG-5, (±) (2E)-4-methyl-2-(4-methyl-5-oxo-2,5-dihydrofuran-2-yloxymethylene)-1,4-dihydro-2H-cyclopenta[b]indol-3-one], the “IC50 at 72 h” value in the test on DU145 is reported as greater than 15 ppm; with HCT116, greater than 15 ppm; in the test with HT-29, greater than 15 ppm; in the test on K562, greater than 15 ppm; with LNCaP, 13 ppm; in the test with MCF-7, 17.5 ppm. In addition, the “IC50 at 72 h” value in the test on MDA-MB-231 [1] is 7.5 ppm; in the test on PC3, greater than 15 ppm; in the test on SW480, greater than 15 ppm; with T47D, 8.8 ppm; in the test on U20S, 3.9 ppm. For the same compound, the “Cell Cycle Distribution G1” value amounted to 82.29% in the test with BJ fibroblast (10 ppm) and 34.74% in the test with MDA-MB-231 [2] (MDA-MB-231, 10 ppm). Further, the “Cell Cycle Distribution G2” value was determined as 10.50% in the test on BJ fibroblast (10 ppm) and 35.70% in the test with MDA-MB-231 [2] (MDA-MB-231, 10 ppm). Besides, the “Cell Cycle Distribution S” value with BJ fibroblast (10 ppm) turned out to be 4.480%; in the test with MDA-MB-231 [2] (MDA-MB-231, 10 ppm), 14.59%. The SubG1/Apoptosis is 0.49 with BJ fibroblast (10 ppm) and 11.32 with MDA-MB-231 [2] (MDA-MB-231, 10 ppm). Further, the “pT308 AKT levels / inhibition of AKT phosphorylation” value with pT308 AKT is “slight delay in the inhibition of AKT phosphorylation, occurring between 8 and 24 hours”.

In the case of `CC1=C[C@H](O/C=C2/C(=O)O[C@@H]3c4ccccc4C[C@H]23)OC1=O` (relative stereo) [GR-24, (3aR*,8bS*,E)-3-(((R*)-4-methyl-5-oxo-2,5-dihydrofuran-2-yloxy)methylene)-3,3a,4,8b-tetrahydro-2H-indeno[1,2-b]furan-2-one], the “Increase in the sub-G1/apoptotic fraction compared to vehicle” value in the test with MDA-MB-231 [2] (10 ppm) came to 4.6 fold.
